Laboratory results: patent publication US20230295133A1, “PROCESS FOR PREPARING A COMPOUND USEFUL TO TREAT MYCOSES” (PULMOCIDE LIMITED, priority 2014, published 2023)
In brackets after ≈: the same amount, converted by molar mass.

Assays:
[1] = system: aspergillus fumigatus infection of BEAS2B cells; experiment: Aspergillus fumigatus infection of bronchial epithelial cells (GM in supernatant); assay type: cell-based; conditions: bronchial epithelial cells infected with Aspergillus fumigatus; read-out: MIC50 Infection of BEAS2B cells
Description: BEAS2B cells were seeded in 96-well plates (100 µL; 30,000 cells / well; Catalogue No 3596, Sigma Aldrich, Dorset, UK) in 10% FBS RPMI-1640 and were then incubated (37° C., 5% CO2) for one day before experimentation. Test compounds (0.5 µL DMSO solution) or vehicle (DMSO) were added to each well to give a final DMSO concentration of 0.5%. BEAS2B cells were incubated with test compounds for 1 hr (35° C., 5% CO2) before infection with aspergillus fumigatus (20 µL; Public Health England) conidia suspension (0.5×10^5 /ml in 10% FBS RPMI-1640). The plate was incubated for 24 hr (35° C., 5% CO2). Supernatant (50 µL) was collected and transferred to a PCR plate (Catalogue No L1402-9700, Starlab, Milton Keynes, UK), which was frozen (-20° C.) until use. After thawing, supernatant (5 µL) was diluted 1:20 by adding R7-PBS solution (95 µL; 1:4 R7 to PBS; Bio-Rad Laboratories, Redmond, WA, USA). GM levels in these samples (50 µL) were measured using Platelia GM-EIA kits (Bio-Rad Laboratories, Redmond, WA, USA). The percentage inhibition for each well was calculated and the IC50 value was calculated from the concentration-response curve generated for each test compound.

[2] = Cell viability: resazurin assay; assay type: cell-based, human; conditions: human, BEAS2B cells; n = 3-5
Description: BEAS2B cells were seeded in 384-well plates (100 µL; 3000 / well /; BD Falcon, Catalogue No 353962) in RPMI-LHC8 (RPMI-1640 and LHC8 media combined in equal proportions) one day before experimentation. For cell-free control wells, RPMI-LHC8 (100 µL) was added. Test compounds (0.5 µL of a DMSO solution) were added to give a final DMSO concentration of 0.5% using an Integra VIAFLO 96 (Integra, Zizers, Switzerland). BEAS2B cells were incubated with each test compound for 1 day (37° C. / 5% CO2 in RPMI-LHC8). After addition of resazurin stock solution (5 µL, 0.04%) the plates were incubated for a further 4 hr (37° C. / 5% CO2). The fluorescence of each well at 545 nm (excitation) and 590 nm (emission) was determined using a multi-scanner (Clariostar: BMG Labtech). The percentage loss of cell viability was calculated for each well relative to vehicle (0.5% DMSO) treatment. Where appropriate, a CC50 value was calculated from the concentration-response curve generated from the concentration-response curve for each test compound.

[3] = system: Aspergillus fumigatus L98H (TR34/L98H); experiment: Broth microdilution assay (modified EUCAST); assay type: cell-based; conditions: Aspergillus fumigatus, read-out: MIC75 against Aspergillus fumigatus isolate L98H
Description: (§1) This assay was conducted using a modified method published by EUCAST (Rodriguez-Tudela et al., 2008). Spores of aspergillus fumigatus (NCPF2010, NCPF7010 (Methionine 220 mutation), NCPF7099 (Glycine G54 mutation) from Public Health England, Wiltshire; TR34/L98H mutants from St Louis Hospital, Paris, France) were cultured in Sabouraud dextrose agar for 3 days. A stock spore suspension was prepared from a Sabouraud dextrose agar culture by washing with PBS-tween (10 mL; PBS containing 0.05% Tween-20, 100 U/mL Penicillin and 100 U/mL Streptomycin). The spore count was assessed using a Neubauer haemocytometer and then adjusted to 10^6 spores/mL with PBS. A working suspension of spores (2 × 10^5 spores/mL) was prepared in filter sterilised, BSA MOPS RPMI-1640 (50 mL; RPMI-1640 containing 2 mM L-glutamine, 0.5% BSA, 2% glucose, 0.165 M MOPS, buffered to pH 7 with NaOH). For the assay, BSA MOPS RPMI-1640 (50 µL/well) was added throughout the 384-well plate (Catalogue number 353962, BD Falcon, Oxford, UK) first. Test compounds (0.5 µL DMSO solution) were then added in quadruplicate using an Integra VIAFLO 96 (Integra, Zizers, Switzerland), and mixed well using a plate mixer. Subsequently 50 µL of the working spore suspension prepared above was added to all wells except non-spore control wells. For non-spore control wells, BSA MOPS-RPMI solution (50 µL/well) was added instead. The plate was covered with a plastic lid, and incubated (35° C. with ambient air) for 48 hr. The OD of each well at 530 nm was determined using a multi-scanner (Clariostar: BMG, Buckinghamshire, UK). The percentage inhibition for each well was calculated and the MIC50, MIC75 and MIC90 values were calculated from the concentration-response curve generated for each test compound.

[4] = system: Aspergillus fumigatus NCPF2010; experiment: Broth microdilution assay (modified EUCAST); assay type: cell-based; conditions: Aspergillus fumigatus, NCPF2010, read-out: MIC75 against Aspergillus fumigatus isolate NCPF2010
Description: as §1

[5] = system: Aspergillus fumigatus NCPF7099; experiment: Broth microdilution assay (modified EUCAST); assay type: cell-based; conditions: Aspergillus fumigatus, NCPF7099, n = 3, read-out: MIC75 against Aspergillus fumigatus isolate NCPF7099
Description: as §1

[6] = system: Aspergillus fumigatus NCPF7100; experiment: Broth microdilution assay (modified EUCAST); assay type: cell-based; conditions: Aspergillus fumigatus, NCPF7100, read-out: MIC75 against Aspergillus fumigatus isolate NCPF7100

Row | SMILES | MIC50 [1] | CC50 at 1 day [2] | MIC [3] | MIC [4] | MIC [5] | MIC [6]
1 | N#Cc1ccc(NC(=O)c2ccc(N3CCN(c4ccc(OCC5CO[C@@](Cn6cncn6)(c6ccc(F)cc6F)C5)c(Cl)c4)CC3)cc2)cc1 (stereo in doubt) [Example 10, 4-(4-(4-(((3R,5R)-5-((1H-1,2,4-triazol-1-yl)methyl)-5-(2,4-difluorophenyl)tetrahydrofuran-3-yl)methoxy)-3-chlorophenyl)piperazin-1-yl)-N-(4-cyanophenyl)benzamide] | 0.0145 µM (≈ 0.0103 µg/mL) | > 14.1 µM | 0.0812 µM (≈ 0.0577 µg/mL) | 0.022 µM (≈ 0.0156 µg/mL) | 0.00996 µM (≈ 0.00707 µg/mL) | 0.0295 µM (≈ 0.021 µg/mL)
2 | O=C(Nc1ccc(F)cc1)c1ccc(N2CCN(c3ccc(OCC4CO[C@@](Cn5cncn5)(c5ccc(F)cc5F)C4)c(Cl)c3)CC2)cc1 (stereo in doubt) [Example 18, 4-(4-(4-(((3R,5R)-5-((1H-1,2,4-triazol-1-yl)methyl)-5-(2,4-difluorophenyl)tetrahydrofuran-3-yl)methoxy)-3-chlorophenyl)piperazin-1-yl)-N-(4-fluorophenyl)benzamide] | 0.0866 µM (≈ 0.0609 µg/mL) | > 14.2 µM | 0.0733 µM (≈ 0.0515 µg/mL) | 0.0222 µM (≈ 0.0156 µg/mL) | 0.011 µM (≈ 0.00773 µg/mL) | 0.0471 µM (≈ 0.0331 µg/mL)
3 | NS(=O)(=O)c1ccc(NC(=O)c2ccc(N3CCN(c4ccc(OCC5CO[C@@](Cn6cncn6)(c6ccc(F)cc6F)C5)c(F)c4)CC3)cc2)cc1 (stereo in doubt) [Example 22, 4-(4-(4-(((3R,5R)-5-((1H-1,2,4-triazol-1-yl)methyl)-5-(2,4-difluorophenyl)tetrahydrofuran-3-yl)methoxy)-3-fluorophenyl)piperazin-1-yl)-N-(4-sulfamoylphenyl)benzamide] | 0.00477 µM (≈ 0.00357 µg/mL) | > 13.4 µM | > 1.34 µM | 0.0113 µM (≈ 0.00845 µg/mL) | 0.0164 µM (≈ 0.0123 µg/mL) | 0.022 µM (≈ 0.0165 µg/mL)
4 | O=C(Nc1ccc(F)cn1)c1ccc(N2CCN(c3ccc(OCC4CO[C@@](Cn5cncn5)(c5ccc(F)cc5F)C4)c(F)c3)CC2)cc1 (stereo in doubt) [Example 40, 4-(4-(4-(((3R, 5R)-5-((1H-1,2,4-triazol-1-yl)methyl)-5-(2,4-difluorophenyl)tetrahydrofuran-3-yl)methoxy)-3-fluorophenyl)piperazin-1-yl)-N-(5-fluoropyridin-2-yl)benzamide] | 0.00687 µM (≈ 0.00472 µg/mL) | > 14.5 µM | 0.0731 µM (≈ 0.0503 µg/mL) | 0.0125 µM (≈ 0.0086 µg/mL) | 0.024 µM (≈ 0.0165 µg/mL) | 0.0146 µM (≈ 0.01 µg/mL)
5 | Cc1cc(N2CCN(c3ccc(C(=O)Nc4ccc(F)cc4)cc3)CC2)c(C)cc1OC[C@@H]1CO[C@@](Cn2cncn2)(c2ccc(F)cc2F)C1 [Example 5, 4-(4-(4-(((3R,5R)-5-((1H-1,2,4-Triazol-1-yl)Methyl)-5-(2,4-Difluorophenyl) Tetrahydrofuran-3-yl)Methoxy)-2,5-Dimethylphenyl)Piperazin-1-yl)-N-(4-Fluorophenyl) Benzamide] | 0.123 µM (≈ 0.0857 µg/mL) | > 14.4 µM | 0.162 µM (≈ 0.113 µg/mL) | 0.0133 µM (≈ 0.00927 µg/mL) | 0.157 µM (≈ 0.109 µg/mL) | 0.0966 µM (≈ 0.0673 µg/mL)
6 | Cc1cc(N2CCN(c3ccc(C(=O)Nc4ccc(F)cn4)cc3)CC2)ccc1OC[C@@H]1CO[C@@](Cn2cncn2)(c2ccc(F)cc2F)C1 [Example 6, 4-(4-(4-(((3R,5R)-5-((1H-1,2,4-Triazol-1-yl)Methyl)-5-(2,4-Difluorophenyl)Tetra Hydrofuran-3-yl)Methoxy)-3-Methylphenyl)Piperazin-1-yl)-N-(5-Fluoropyridin-2-yl) Benzamide] | 0.0239 µM (≈ 0.0163 µg/mL) | > 14.6 µM | 0.131 µM (≈ 0.0896 µg/mL) | 0.0125 µM (≈ 0.00855 µg/mL) | 0.0212 µM (≈ 0.0145 µg/mL) | 0.0214 µM (≈ 0.0146 µg/mL)
7 | Cc1cc(N2CCN(c3ccc(C(=O)Nc4ccc(C#N)cn4)cc3)CC2)ccc1OC[C@@H]1CO[C@@](Cn2cncn2)(c2ccc(F)cc2F)C1 [Example 7] | 0.0125 µM (≈ 0.00863 µg/mL) | > 14.5 µM | 0.0419 µM (≈ 0.0289 µg/mL) | 0.00586 µM (≈ 0.00405 µg/mL) | 0.0141 µM (≈ 0.00974 µg/mL) | 0.00407 µM (≈ 0.00281 µg/mL)
8 | Cc1cc(N2CCN(c3ccc(C(=O)Nc4cccc(C#N)c4)cc3)CC2)ccc1OC[C@@H]1CO[C@@](Cn2cncn2)(c2ccc(F)cc2F)C1 [Example 8, 4-(4-(4-(((3R,5R)-5-((1H-1,2,4-triazol-1-yl)methyl)-5-(2,4-difluorophenyl)tetrahydrofuran-3-yl)methoxy)-3-methylphenyl)piperazin-1-yl)-N-(3-cyanophenyl)benzamide] | 0.0142 µM (≈ 0.00979 µg/mL) | 0.548 µM | > 1.45 µM | 0.0127 µM (≈ 0.00876 µg/mL) | > 1.45 µM | > 1.45 µM
9 | Cc1cc(N2CCN(c3ccc(C(=O)Nc4ccc(C#N)cc4)cc3)CC2)ccc1OC[C@@H]1CO[C@@](Cn2cncn2)(c2ccc(F)cc2F)C1 [Example 9, 4-(4-(4-(((3R,5R)-5-((1H-1,2,4-triazol-1-yl)methyl)-5-(2,4-difluorophenyl)tetrahydrofuran-3-yl)methoxy)-3-methylphenyl)piperazin-1-yl)-N-(4-cyanophenyl)benzamide] | 0.00521 µM (≈ 0.00359 µg/mL) | > 14.5 µM | 0.114 µM (≈ 0.0786 µg/mL) | 0.0291 µM (≈ 0.0201 µg/mL) | 0.00739 µM (≈ 0.0051 µg/mL) | 0.0232 µM (≈ 0.016 µg/mL)
10 | Cc1cc(N2CCN(c3ccc(C(=O)Nc4ccc(C#N)cc4)cc3)CC2)cc(C)c1OC[C@@H]1CO[C@@](Cn2cncn2)(c2ccc(F)cc2F)C1 [Example 11, 4-(4-(4-(((3R, 5R)-5-((1H-1,2,4-triazol-1-yl)methyl)-5-(2,4-difluorophenyl)tetrahydrofuran-3-yl)methoxy)-3,5-dimethylphenyl)piperazin-1-yl)-N-(4-cyanophenyl)benzamide] | 0.284 µM (≈ 0.2 µg/mL) | > 14.2 µM | 0.179 µM (≈ 0.126 µg/mL) | 0.0236 µM (≈ 0.0166 µg/mL) | 0.049 µM (≈ 0.0345 µg/mL) | 0.0529 µM (≈ 0.0372 µg/mL)
11 | Cc1cc(N2CCN(c3ccc(C(=O)Nc4ccc(OC(F)F)cc4)cc3)CC2)ccc1OC[C@@H]1CO[C@@](Cn2cncn2)(c2ccc(F)cc2F)C1 [Example 12, 4-(4-(4-(((3R,5R)-5-((1H-1,2,4-triazol-1-yl)methyl)-5-(2,4-difluorophenyl)tetrahydrofuran-3-yl)methoxy)-3-methylphenyl)piperazin-1-yl)-N-(4-difluoromethoxyphenyl)benzamide] | 0.0973 µM (≈ 0.0711 µg/mL) | > 13.7 µM | 0.0459 µM (≈ 0.0335 µg/mL) | 0.0134 µM (≈ 0.00979 µg/mL) | 0.0228 µM (≈ 0.0167 µg/mL) | 0.0303 µM (≈ 0.0221 µg/mL)
12 | Cc1cc(N2CCN(c3ccc(C(=O)Nc4cccc(F)c4)cc3)CC2)ccc1OC[C@@H]1CO[C@@](Cn2cncn2)(c2ccc(F)cc2F)C1 [Example 14, 4-(4-(4-(((3R, 5R)-5-((1H-1,2,4-triazol-1-yl)methyl)-5-(2,4-difluorophenyl)tetrahydrofuran-3-yl)methoxy)3-methylphenyl)piperazin-1-yl)-N-(3-fluorophenyl)benzamide] | 0.00836 µM (≈ 0.00571 µg/mL) | > 14.6 µM | 0.0735 µM (≈ 0.0502 µg/mL) | 0.0431 µM (≈ 0.0294 µg/mL) | 0.0332 µM (≈ 0.0227 µg/mL) | 0.041 µM (≈ 0.028 µg/mL)
